What all share (type): biochemical
Assay [1] concerns the target full length recombinant Pim-1 (Homo sapiens (Human), UniProt P11309). Nature of the assay: Pim enzyme assay (HTRF, phosphorylation of biotinylated-BAD (S112) peptide), Pim-1. Particulars: Pim-1 enzyme assay; read-out: Pim_1_IC50. (Time-resolved FRET reads energy transfer from a long-lived donor to a nearby acceptor.)
Assay [2] concerns the target full length recombinant Pim-2 (Homo sapiens (Human), UniProt Q9P1W9). Nature of the assay: Pim enzyme assay (HTRF, phosphorylation of biotinylated-BAD (S112) peptide), Pim-2. Particulars: Pim-2 enzyme assay; read-out: Pim2_IC50.
The target of assay [3] is full length recombinant Pim-3 (Homo sapiens (Human), UniProt Q86V86). Nature of the assay: Pim enzyme assay (HTRF, phosphorylation of biotinylated-BAD (S112) peptide), Pim-3. Particulars: Pim-3 enzyme assay; read-out: Pim3 IC50. An excerpt: Pim-3 was purchased from Millipore (UK).
The phosphorylation of biotinylated-BAD (S112) peptide by full length recombinant Pim-1, Pim-2, or Pim-3 protein was detected with streptavidin:Allophycocyanin (APC) conjugate and a europium (Eu) labeled antibody directed against phosphorylated-BAD (S112). […] The fluorescence is directly proportional to the amount of phosphorylated BAD peptide present in the reaction.
A reference compound was included on each assay plate in order to validate that plate; on one plate of every assay run, two additional reference compounds were included.
The final buffer conditions were as follows: 60 mM Hepes, pH 7.0, 0.05% BSA, 2 mM DTT. Incubations were carried out at RT (22° C.) for 2 h for Pim-1, 1 h and 30 min for Pim-3, and 45 min for Pim-2. The reaction was then stopped by the addition of 3 mM EDTA, and fluorescence was measured by an HTRF® Rubystar microplate reader. For each plate, percent of control (POC) values were calculated for each well. Values for the IC50 IP were estimated using a standard 4-parameter logistic model.

A value given as a limit tells only on which side of the number the result lay.

full length recombinant Pim-1, sequence (P11309 whole entry): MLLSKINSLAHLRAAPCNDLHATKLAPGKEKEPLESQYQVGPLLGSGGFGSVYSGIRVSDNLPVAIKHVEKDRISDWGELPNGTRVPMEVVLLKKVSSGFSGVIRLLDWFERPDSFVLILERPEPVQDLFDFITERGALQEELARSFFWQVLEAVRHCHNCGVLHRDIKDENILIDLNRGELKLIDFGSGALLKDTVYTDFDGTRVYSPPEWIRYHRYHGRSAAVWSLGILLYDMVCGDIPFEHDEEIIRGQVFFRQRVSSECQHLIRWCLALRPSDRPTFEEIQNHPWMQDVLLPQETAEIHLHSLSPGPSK
full length recombinant Pim-2, sequence (Q9P1W9 whole entry): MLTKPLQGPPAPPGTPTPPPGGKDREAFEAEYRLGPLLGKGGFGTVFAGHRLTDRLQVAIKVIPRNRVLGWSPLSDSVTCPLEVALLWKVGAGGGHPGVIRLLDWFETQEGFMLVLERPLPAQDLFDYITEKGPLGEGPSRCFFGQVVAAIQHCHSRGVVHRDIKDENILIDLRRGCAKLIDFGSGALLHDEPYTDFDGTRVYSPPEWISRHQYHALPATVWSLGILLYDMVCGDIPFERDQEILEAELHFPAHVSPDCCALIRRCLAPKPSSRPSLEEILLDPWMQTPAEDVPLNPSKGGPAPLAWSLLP

Consider `COc1cncc(-c2c[nH]c3ccc(-c4nnc(N)s4)cc23)c1` [Example 199, 5-(3-(5-methoxy-3-pyridinyl)-1H-indol-5-yl)-1,3,4-thiadiazol-2-amine], for which the IC50 in assay [1] is 268 nM; in assay [2], 618 nM; in assay [3], 165 nM.

For `Nc1nnc(-c2ccc3[nH]cc(-c4cccc(NC5CCCCC5)n4)c3c2)s1` [Example 205, 6-(5-(5-amino-1,3,4-thiadiazol-2-yl)-1H-indol-3-yl)-N-cyclohexyl-2-pyridinamine], the IC50 in assay [1] turned out to be 110 nM; in assay [2], 227 nM; in assay [3] it was 21.6 nM.

Take `Nc1nnc(-c2ccc3[nH]cc(-c4cccc(F)n4)c3c2)s1` [Example 209, 5-(3-(6-fluoro-2-pyridinyl)-1H-indol-5-yl)-1,3,4-thiadiazol-2-amine]: the IC50 was determined as 705 nM in assay [1], 558 nM in assay [2] and 149 nM in assay [3].

For `Nc1cncc(-c2c[nH]c3ccc(-c4nnc(N)s4)cc23)n1` [Example 210, 6-(5-(5-amino-1,3,4-thiadiazol-2-yl)-1H-indol-3-yl)-2-pyrazinamine], the results for the IC50 in assay [1], in assay [2] and in assay [3] were 142 nM, 192 nM and 28.7 nM, respectively.

For `CNc1nnc(-c2ccc3[nH]cc(-c4cnc5ccccc5c4)c3c2)s1` [Example 217, N-methyl-5-(3-(3-quinolinyl)-1H-indol-5-yl)-1,3,4-thiadiazol-2-amine], the IC50 in assay [1] was 234 nM; in assay [2], 1630 nM; in assay [3], 181 nM.

In the case of `CNc1nnc(-c2ccc3[nH]cc(-c4cn[nH]c4)c3c2)s1` [Example 218, N-methyl-5-(3-(1H-pyrazol-4-yl)-1H-indol-5-yl)-1,3,4-thiadiazol-2-amine], the IC50 in assay [1] stood at 241 nM; in assay [2] it was 623 nM; in assay [3], 123 nM.

Regarding `CNc1nnc(-c2ccc3[nH]cc(-c4ccncc4)c3c2)s1` [Example 219, N-methyl-5-(3-(4-pyridinyl)-1H-indol-5-yl)-1,3,4-thiadiazol-2-amine], the IC50 in assay [1] was 551 nM; in assay [2] it was 686 nM; in assay [3], 204 nM.

Turning to `CNc1nnc(-c2ccc3[nH]cc(-c4cccnc4)c3c2)s1` [Example 220, N-methyl-5-(3-(3-pyridinyl)-1H-indol-5-yl)-1,3,4-thiadiazol-2-amine], the IC50 turned out to be 636 nM in assay [1], 1230 nM in assay [2] and 274 nM in assay [3].

Take `CNc1nnc(-c2ccc3[nH]cc(-c4cccc(N)c4)c3c2)s1` [Example 221, 5-(3-(3-aminophenyl)-1H-indol-5-yl)-N-methyl-1,3,4-thiadiazol-2-amine]: the figures for the IC50 in assay [1], in assay [2] and in assay [3] were 744 nM, 1490 nM and 158 nM, respectively.

As for `CNc1nnc(-c2ccc3[nH]cc(-c4ccn[nH]4)c3c2)s1` [Example 222, N-methyl-5-(3-(1H-pyrazol-5-yl)-1H-indol-5-yl)-1,3,4-thiadiazol-2-amine], the IC50 came out at 1010 nM in assay [1], 1440 nM in assay [2] and 268 nM in assay [3].

Consider `CNc1nnc(-c2ccc3[nH]cc(-c4cccc(C(F)(F)F)c4)c3c2)s1` [Example 224, N-methyl-5-(3-(3-(trifluoromethyl)phenyl)-1H-indol-5-yl)-1,3,4-thiadiazol-2-amine], for which the IC50 in assay [1] was 1890 nM; in assay [2], more than 3000 nM; in assay [3] it was 207 nM.

For `CNc1nnc(-c2ccc3[nH]cc(-c4cccc(OC(F)(F)F)c4)c3c2)s1` [Example 225, N-methyl-5-(3-(3-(trifluoromethoxy)phenyl)-1H-indol-5-yl)-1,3,4-thiadiazol-2-amine], the IC50 in assay [1] is 2360 nM; in assay [2], more than 3000 nM; in assay [3], 416 nM.

For the compound `CNc1nnc(-c2ccc3[nH]cc(-c4cccc(OC)c4)c3c2)s1` [Example 226, 5-(3-(3-methoxyphenyl)-1H-indol-5-yl)-N-methyl-1,3,4-thiadiazol-2-amine], the IC50 in assay [1] was 2450 nM; in assay [2], more than 3000 nM; in assay [3] it was 354 nM.

Regarding `CNc1nnc(-c2ccc3[nH]cc(-c4cccc(-n5ccnc5C)n4)c3c2)s1` [Example 234, N-methyl-5-(3-(6-(2-methyl-1H-imidazol-1-yl)-2-pyridinyl)-1H-indol-5-yl)-1,3,4-thiadiazol-2-amine], the IC50 in assay [1] turned out to be 108 nM; in assay [2] it was 123 nM; in assay [3], 18.5 nM.

As to `CNc1nnc(-c2ccc3[nH]cc(-c4cccc(N5CCCCC5=O)n4)c3c2)s1` [Example 236, 1-(6-(5-(5-(methylamino)-1,3,4-thiadiazol-2-yl)-1H-indol-3-yl)-2-pyridinyl)-2-piperidinone], the values for the IC50 in assay [1], in assay [2] and in assay [3] were 325 nM, 538 nM and 114 nM, respectively.

Turning to `CNc1nnc(-c2ccc3[nH]cc(-c4c(F)cccc4F)c3c2)s1` [Example 237, 5-(3-(2,6-difluorophenyl)-1H-indol-5-yl)-N-methyl-1,3,4-thiadiazol-2-amine], the figures for the IC50 in assay [1], in assay [2] and in assay [3] were 538 nM, 1220 nM and 227 nM, respectively.

Consider `CNc1nnc(-c2ccc3[nH]cc(-c4cccc(-n5ccccc5=O)n4)c3c2)s1` [Example 238, 6′-(5-(5-(methylamino)-1,3,4-thiadiazol-2-yl)-1H-indol-3-yl)-2H-1,2′-bipyridin-2-one], for which the IC50 worked out at 712 nM in assay [1], 856 nM in assay [2] and 197 nM in assay [3].

For the compound `CNc1nnc(-c2ccc3[nH]cc(-c4cccc(F)n4)c3c2)s1` [Example 239, 5-(3-(6-fluoro-2-pyridinyl)-1H-indol-5-yl)-N-methyl-1,3,4-thiadiazol-2-amine], the figures for the IC50 in assay [1], in assay [2] and in assay [3] were 1030 nM, 739 nM and 170 nM, respectively.

In the case of `CNc1nnc(-c2ccc3[nH]cc(-c4csc(-c5ccoc5)n4)c3c2)s1` [Example 240, 5-(3-(2-(3-furanyl)-1,3-thiazol-4-yl)-1H-indol-5-yl)-N-methyl-1,3,4-thiadiazol-2-amine], the IC50 in assay [1] is 1520 nM; in assay [2] it was 2640 nM; in assay [3] it was 409 nM.

`CNc1nnc(-c2ccc3[nH]cc(-c4ccc(-c5cccs5)s4)c3c2)s1` [Example 241, 5-(3-(2,2′-bithiophen-5-yl)-1H-indol-5-yl)-N-methyl-1,3,4-thiadiazol-2-amine]: the IC50 in assay [1] was 2180 nM; in assay [2], more than 10000 nM; in assay [3], 414 nM.

For `NC(=O)c1nnc(-c2ccc3[nH]cc(-c4cccc(N5CCOCC5)n4)c3c2)s1` [Example 242, 5-(3-(6-(4-morpholinyl)-2-pyridinyl)-1H-indol-5-yl)-1,3,4-thiadiazole-2-carboxamide], the IC50 in assay [1] is 983 nM; in assay [2], more than 3000 nM; in assay [3], 351 nM.

Take `c1ccc(-c2nnc(-c3ccc4[nH]cc(-c5nccc(C6CC6)n5)c4c3)o2)cc1` [Example 255, 3-(4-cyclopropyl-2-pyrimidinyl)-5-(5-phenyl-1,3,4-oxadiazol-2-yl)-1H-indole]: the IC50 in assay [1] stood at 323 nM; in assay [2], 677 nM; in assay [3], 123 nM.

For `CC(Nc1nnc(-c2ccc3[nH]cc(-c4ncccn4)c3c2)o1)c1ccccc1` (stereo not drawn) [Example 266, N-(1-phenylethyl)-5-(3-(2-pyrimidinyl)-1H-indol-5-yl)-1,3,4-oxadiazol-2-amine], the IC50 in assay [1] was 64.8 nM; in assay [2], 229 nM; in assay [3], 43.6 nM.

For the compound `CC(Nc1nnc(-c2ccc3[nH]cc(-c4ccccn4)c3c2)o1)c1ccccc1` (stereo not drawn) [Example 267, N-(1-phenylethyl)-5-(3-(2-pyridinyl)-1H-indol-5-yl)-1,3,4-oxadiazol-2-amine], the values for the IC50 in assay [1], in assay [2] and in assay [3] were 97.2 nM, 231 nM and 56.1 nM, respectively.

As for `CC(Nc1nnc(-c2ccc3[nH]cc(-c4cnccn4)c3c2)o1)c1ccccc1` (stereo not drawn) [Example 268, N-(1-phenylethyl)-5-(3-(2-pyrazinyl)-1H-indol-5-yl)-1,3,4-oxadiazol-2-amine], the figures for the IC50 in assay [1], in assay [2] and in assay [3] were 171 nM, 559 nM and 81.2 nM, respectively.

Values taken from patent US9321756B2, “Azole compounds as PIM inhibitors” (priority 2011, dated 2016).
